Data taken from patent publication US7183411B2, “Naphthol, quinoline and isoquinoline-derived urea modulators of vanilloid VR1 receptor” (Janssen Pharmaceutica N.V., priority 2002, dated 2007).

Tests used:
[1] = biological target: T1, human VR1 vanilloid receptors (Homo sapiens, UniProt Q8NER1); test: [3H] RTX binding assay, hVR1 membranes from transfected HEK293 cells; conditions: human VR1, read-out: Receptor binding Ki
T1 construct: expressed in transfected cells; host or cells: HEK293
Experimental: Compounds of the present invention were tested for their ability to inhibit the binding of [^3H] RTX to hVR1 receptors in a [^3H] RTX binding assay as previously described (Zhang, Sui-Po. Improved ligand binding assays for vanilloid receptors. PCT Int. Appl. (2002), 29 pp. CODEN: PIXXD2 WO 0233411 A1 20020425 AN 2002:315209; Grant, Elfrida R.; Dubin, Adrienne E.; Zhang, Sui-Po; Zivin, Robert A.; Zhong, Zhong Simultaneous intracellular calcium and sodium flux imaging in human vanilloid receptor 1 (VR1)-transfected human embryonic kidney cells: a method to resolve ionic dependence of VR1-mediated cell death. Journal of Pharmacology and Experimental Therapeutics (2002), 300(1), 9–17.)
HEK293 cells were transfected with human VR1 vanilloid receptors and washed with Hank's Balanced Salt Solution, dissociated with cell dissociation buffer (Sigma), and then centrifuged at 1000×g for 5 min. Cell pellets were homogenized in cold 20 mM HEPES buffer, pH 7.4, containing 5.8 mM NaCl, 320 mM sucrose, 2 mM MgCl2, 0.75 CaCl2 and 5 mM KCl and centrifuged at 1000×g for 15 min. The resultant supernate was then centrifuged at 40000×g for 15 min. The pelleted membranes were kept in an −80° C. freezer.
Approximately 120 μg protein/ml from membranes were incubated with indicated concentrations of [^3H] RTX in 0.5 ml of the HEPES buffer (pH 7.4) containing 0.25 mg/mL fatty acid-free bovine serum albumin at 37° C. for 60 min. The reaction mixture was then cooled to 4° C., 0.1 mg α1-acid glycoprotein added to each sample and incubated at 4° C. for 15 min. The samples were centrifuged at 18500×g for 15 min. The tip of the microcentrifuge tube containing the pellet was cut off. Bound radioactivity was quantified by scintillation counting. Non-specific binding was tested in the presence of 200 nM unlabeled RTX.

human VR1 = biological target: T2, human VR1 (Homo sapiens, UniProt Q8NER1); test: Human VR1 functional assay (FLIPR intracellular Ca2+, capsaicin challenge); type: cell-based; conditions: read-out: In vitro functional assays hIC50 or EC50
T2 construct: expressed in transfected cells; host or cells: HEK293
T2 sequence (Q8NER1 whole entry): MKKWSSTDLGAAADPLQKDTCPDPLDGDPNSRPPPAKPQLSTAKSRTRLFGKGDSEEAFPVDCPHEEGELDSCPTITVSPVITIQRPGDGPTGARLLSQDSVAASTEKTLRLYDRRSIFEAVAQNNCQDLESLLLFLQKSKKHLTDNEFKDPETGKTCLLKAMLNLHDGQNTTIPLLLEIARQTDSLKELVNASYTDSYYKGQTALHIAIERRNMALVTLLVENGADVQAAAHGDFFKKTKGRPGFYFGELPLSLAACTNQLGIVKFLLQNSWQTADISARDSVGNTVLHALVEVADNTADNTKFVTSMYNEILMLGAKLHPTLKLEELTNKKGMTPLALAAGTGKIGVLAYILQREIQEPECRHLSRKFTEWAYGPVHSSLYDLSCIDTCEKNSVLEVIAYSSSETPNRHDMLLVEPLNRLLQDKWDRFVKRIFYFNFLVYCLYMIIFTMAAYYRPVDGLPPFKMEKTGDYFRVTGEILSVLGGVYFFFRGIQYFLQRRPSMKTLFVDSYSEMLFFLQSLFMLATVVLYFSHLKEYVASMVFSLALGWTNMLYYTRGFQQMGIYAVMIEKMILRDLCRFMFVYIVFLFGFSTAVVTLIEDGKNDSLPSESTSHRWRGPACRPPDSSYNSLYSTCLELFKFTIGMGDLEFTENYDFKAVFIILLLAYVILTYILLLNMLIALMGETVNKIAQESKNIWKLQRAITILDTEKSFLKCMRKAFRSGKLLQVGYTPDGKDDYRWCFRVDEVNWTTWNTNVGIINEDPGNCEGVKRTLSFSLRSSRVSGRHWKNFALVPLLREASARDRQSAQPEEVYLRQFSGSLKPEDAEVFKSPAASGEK
Experimental: The functional activity of the test compounds was determined by measuring changes in intracellular calcium concentration using a Ca^++-sensitive fluorescent dye and FLIPR™ technology.
HEK293 Cells expressing human VR1 were grown on poly-D-lysine coated 96 well black-walled plates (BD 354640) and 2 days later loaded with Fluo-3/AM for 1 hour and subsequently tested for agonist-induced increases in intracellular Ca^2+ levels using FLIPR™ technology. […] EC50 or IC50 values were determined from dose-response studies.

[2] = test system: Carrageenan paw-induced thermal hyperalgesia; test: Carrageenan paw-induced thermal hyperalgesia; type: in vivo; conditions: rat, po, reversal of carrageenan thermal hyperalgesia; read-out: CgHP ED50
Experimental: Each rat is placed on a heated surface (51° C.) in order to measure the time necessary to elicit a response, and an initial (baseline) response time to a thermal stimuli was recorded for each animal. A response is defined as any shaking, licking, or tucking of the treated paw or jumping. Animals not treated with a test compound respond in approximately 20 seconds. The maximal exposure time permitted is 60 seconds to prevent tissue damage. Rats were injected with an irritant (e.g., 1% carrageenan solution in 0.9% saline) subcutaneously into the sub-plantar tissue of the left hind paw to stimulate an acute inflammatory reaction.
Two hours later, the response time of the animal to the thermal stimulus was evaluated and compared to the animal's baseline response time. This shorter response time was recorded as percent hyperalgesia (% H). A cut-off value for % H (usually 75%) was used during analysis to ensure that the animals were hyperalgesic. Animals were then dosed with test drug or vehicle.
At some time(s) later (typically 45 and 90 minutes), the response time of the animal to the thermal stimulus was again evaluated. For each time point, a percent reversal of hyperalgesia (% R) was calculated using the following formula: % R=(Drug Latency−Carrageenan latency)/(Baseline latency−Carrageenan latency). ED50 values were calculated from % R obtained at several drug doses.

[3] = test system: capsaicin-induced guinea pig bronchial ring contraction; test: Isolated guinea pig bronchial rings, capsaicin-induced contraction (organ bath)
Experimental: Aminotetralin VR1 antagonists were tested for their potency to block capsaicin-induced guinea pig bronchial ring contraction in a standard in vitro organ bath assay [Tucker, 2001]. Two mm rings of bronchial tissue obtained from male guinea pigs (325 g) were suspended in normal Krebs solution between two wire hooks under an initial loading tension of 1 gram. The saline was maintained in a 5% CO2 and 95% O2 atmosphere at 37° C. in the presence of indomethacin (5 μM). A sub-maximal dose of 5-Methylfurmethide (5Mef, 1 μM) was added to each tissue to determine responsiveness using an isometric force transducer. After washout, tissues were exposed to compounds or vehicle for 30 min, treated with thiorphan (10 μM, 5% Na2CO3), and primed using KCl in increasing linear concentrations from 1 mM at 1 mM intervals until a slight increase in muscle tone was induced (˜1% of 5Mef response). […] The dose response curve was calculated as % max of the 5-Mef response and estimated pA2 were determined [Tucker, 2001]).

[4] = test system: DSS-induced acute colitis; test: Rodent colitis model (5% dextran sulfate sodium); type: in vivo, mice or rats; conditions: preliminary study
Experimental: 5% Dextran Sulfate Sodium administered in the drinking water of mice or rats for 7 days results in an acute colitis with some morphological changes that are similar to human ulcerative colitis. Among those changes are colon shortening, accumulation of neutrophils and other inflammatory cells, decreases in colon weight, decreases in body weight, tissue damage in the colon, and loss of stool consistency.
Each animal is dosed daily in the morning and late afternoon for BID dosing. Treatment with vehicle or test compound begins on day 0, immediately after initial body weights are taken, and ends on day 6. Water bottles are removed and replaced by graduated water bottles containing 5% DSS in indicated groups. Tap water remains on control groups only. Sufficient DSS drinking water is placed in graduated water bottles and refilled each day to monitor daily output. Animals are weighed daily from day 0 to 7, and animal condition and the consistency of stools recorded. Following sacrifice of the animal on day 7, the colon is surgically removed from the distal rectum (anus) to the cecal-colonic juncture and the colon length and weight measured. Colon slices may be obtained for histological evaluation. […] Water consumption and body weights are measured daily. […] An increase in myeloperoxidase activity occurs in this model and is evaluated separately.

VR1 (rat spinal cord) = biological target: T3, VR1 (rat spinal cord) (Rattus norvegicus, UniProt O35433); test: [3H]-RTX binding assay using rat tissue (spinal cord membranes); conditions: cells marked (rat), read-out: Receptor binding Ki (rat)
T3 construct: Rat spinal cord was homogenized twice with a Polytron; from tissue; host or cells: rat spinal cord membranes
T3 sequence (O35433 whole entry): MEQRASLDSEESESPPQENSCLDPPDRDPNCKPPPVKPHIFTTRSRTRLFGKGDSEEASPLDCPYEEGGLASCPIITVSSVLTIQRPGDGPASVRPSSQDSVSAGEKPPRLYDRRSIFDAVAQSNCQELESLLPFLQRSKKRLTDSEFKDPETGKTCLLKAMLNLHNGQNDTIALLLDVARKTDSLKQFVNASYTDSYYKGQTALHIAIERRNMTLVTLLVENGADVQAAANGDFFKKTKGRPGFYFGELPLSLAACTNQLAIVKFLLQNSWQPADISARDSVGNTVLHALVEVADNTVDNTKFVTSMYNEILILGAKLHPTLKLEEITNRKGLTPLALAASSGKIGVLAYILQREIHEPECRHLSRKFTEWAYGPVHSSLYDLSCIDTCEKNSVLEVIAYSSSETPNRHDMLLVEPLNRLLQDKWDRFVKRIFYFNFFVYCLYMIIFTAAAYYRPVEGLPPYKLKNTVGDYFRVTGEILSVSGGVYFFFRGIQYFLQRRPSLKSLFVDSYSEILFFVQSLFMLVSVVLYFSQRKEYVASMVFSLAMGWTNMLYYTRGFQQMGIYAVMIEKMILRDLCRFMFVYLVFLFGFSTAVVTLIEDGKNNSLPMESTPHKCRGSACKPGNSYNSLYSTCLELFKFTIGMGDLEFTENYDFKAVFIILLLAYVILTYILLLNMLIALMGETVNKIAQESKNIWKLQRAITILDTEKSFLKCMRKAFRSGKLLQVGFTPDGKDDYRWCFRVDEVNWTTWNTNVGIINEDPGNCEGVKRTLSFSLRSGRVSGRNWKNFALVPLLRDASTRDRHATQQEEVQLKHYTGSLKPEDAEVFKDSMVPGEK
Experimental: Alternatively, a binding assay using rat tissue was used. Rat spinal cord was homogenized twice with a Polytron and centrifuged at 3000 rpm for 10 min in HEPES buffer containing 20 mM HEPES, pH 7.4, NaCl 5.8 mM, sucrose 320 mM, MgCl2 2 mM, CaCl2 0.75 mM and KCl 5 mM. The supernatant was then centrifuged at 18,000 rpm for 20 min. The pellet was saved in a tube and 10 ml assay buffer was added into the tube. The pellet and buffer were mixed with a Polytron. The assay contained 120 μg/ml membrane protein and 0.3–0.6 nM [^3H]-RTX (NEN, Boston) in a total volume of 0.5 ml HEPES buffer. Following-incubation for 60 min at 37 C, the samples were cooled down on ice, and 100 mg of α-acid glycoprotein were added into the samples. After centrifugation at 13,000 rpm for 15 min, the supernatant was aspirated and the tips of tubes were cut off and placed into 6 ml vials. Data were calculated according to the equation: % inhibition=(total binding−binding)*100/(total binding−non specific binding). Ki value values were calculated using a Prism program.

[5] = biological target: T4, VR1 expressed endogenously on small rat dorsal root ganglion (DRG) neurons (Rattus norvegicus, UniProt O35433); test: Electrophysiologic functional assay using dissociated rat DRG cells; type: cell-based; conditions: read-out: In vitro functional assays Estimated pA2 (rat) (converted)
T4 construct: VR1 expressed endogenously on small rat dorsal root ganglion (DRG) neurons; endogenous in cells; host or cells: dissociated rat DRG neurons
T4 sequence (O35433 whole entry): as above
Experimental: Compounds are tested for their activity on VR1 expressed endogenously on small rat dorsal root ganglion (DRG) neurons. DRG neurons from normal rats were dissociated (see methods in Chaplan et al., 2003) and whole cell currents mediated by VR1 were recorded using the whole cell patch clamp technique.

[6] = test system: capsaicin-induced cough responses; test: Capsaicin-induced cough (antitussive efficacy); type: in vivo; conditions: guinea pig, 25 mg/kg IP at -60 min; vehicle 3.0±0.5; P<0.001
Experimental: The antitussive activity of intraperitoneally (IP) administered compound is assessed at a single dose level against casaicin-induced cough responses as compared to positive and vehicle controls. Thirty-six male Dunkin-Hartley guinea pigs (295–590 g, mean 425 g) are randomly allocated to one of three groups (n=12 guinea pigs per group). […] Guinea pigs are dosed IP at −60 min with vehicle (15% Solutol in 5% dextrose solution); the positive control codeine (25 mg/kg), or test compound (20 mg/kg in 15% Solutol in 5% dextrose solution). Individual guinea pigs are placed in an exposure chamber with an airflow of 3 L/min at −10 min to acclimatize. […] The mean±SEM number of capsaicin-induced cough responses recorded in vehicle pre-treated guinea pigs was 3.0±0.5. […] ANOVA statistical analysis was used to determine the level of significance.

T1 sequence (Q8NER1 whole entry): as the sequence (Q8NER1 whole entry) above

CC(C)(C)c1ccc(CNC(=O)Nc2cccc3cnccc23)cc1 [Compound 33]
Ki [1]: 0.26 nM | IC50 or EC50 (human VR1): 2.7 nM | ED50 [2]: 0.276 mg/kg | antagonist Kb (from pA2) against capsaicin-induced contraction [3]: 13 nM | protection against colon shortening [4]: did not protect | protection against colon weight loss [4]: did not protect

O=C(NCc1ccc(-c2cccs2)s1)Nc1cccc2ccc(O)cc12 [Compound 39]
Ki (VR1 (rat spinal cord)): 382 nM

O=C(NCc1ccc(Cl)c(C(F)(F)F)c1)Nc1cccc2ccc(O)cc12 [Compound 57, 1-(4-Chloro-3-trifluoromethyl-benzyl)-3-(7-hydroxy-naphthalen-1-yl)-urea]
Ki [1]: 1.14 nM | Kb [5]: ~10 nM | ED50 [2]: 0.354 mg/kg

COc1ccc2c3c1O[C@H]1[C@@H](O)C=C[C@H]4[C@@H](C2)N(C)CC[C@@]341 [codeine]
number of capsaicin-induced cough responses (mean±SEM) [6]: 0.58±0.15 coughs
